Assay [1] is described as follows: Blockade of agonist (N-allylnormetazocine)-induced stereotyped behavior and ataxia. Type of assay: in vivo. To be noted: 1 mg/kg i.p. test compound; 15 mg/kg i.p. N-allylnormetazocine. Here is the method: Compounds of the invention were evaluated for their ability to block the effects of N-allylnormetazocine on the induction of stereotyped behavior and ataxia. To test for antagonism, drugs are administered at varying times before i.p. administration of 15 mg/kg of N-allylnormetazocine. Behavioral and ataxia ratings are taken at 2.5 minutes, 5 minutes, and every 5 minutes thereafter until the animal returns to control behavior. […] The lowest dose of the test compound which is capable of blocking the stereotyped behavior and ataxia induced by N-allylnormetazocine was determined.

A further assay addresses sigma receptor. The assay can be described thus: Radioreceptor assay: sigma receptor, displacement of [^3 H]-3-(+)-PPP. Type of assay: binding, male Sprague-Dawley rats. To be noted: units ± SEM; rat brain crude membranes; 2 nM [^3 H]-(+)-3-PPP; 1 hr incubation at room temperature; pH 7.4; read-out: Ki apparent. Here is the method:
To determine the effects of the compounds in a sigma receptor assay, crude membrane preparations were prepared as follows. Brains from male Sprague-Dawley rats were homogenized in 10 volumes (wt/vol) of 0.32M sucrose, using a Polytron grinder. The homogenate was centrifuged at 900×G for 10 minutes at 4° C. The supernatant was collected and centrifuged at 22,000×g for 20 minutes at 4° C. The pellet was resuspended in 10 volumes of 50 mM Tris/HCl buffer (pH 7.4) and centrifuged at 22,000×g for 20 minutes at 4° C. The pellet was resuspended in 5 mM Tris/HCl buffer (pH 7.4) to give a final concentration of 250 mg/ml of the crude material. Incubation tubes were prepared in triplicate and contained 0.1 ml of tissue suspension, 2 nM of [^3 H]-(+)-1-propyl-3-(3-hydroxyphenyl)piperidine [^3 H]-3-(+)-PPP, and varying concentrations of the displacing ligand (0.1-1,000 nM) in a final volume of 0.5 ml. After a 1 hr incubation at room temperature, the contents of the test tubes were filtered through GS filter paper which had been presoaked for at least 2 hours in 0.05% polyethyleneimine. The test tubes were rinsed three times with Tris/HCl buffer. Radioactivity on the filters was determined using liquid scintillation spectrometry and inhibition curves were calculated according to the method of Cheng and Prusoff [Biochem. Pharmacol., 22, 3099-3108 (1973)].

Each structure is given as a SMILES string.

Here are results for five compounds from patent publication US5098916A, “Propanobicyclic amine derivatives for CNS disorders” (G. D. Searle & Co., priority 1990, dated 1992).

Regarding `c1ccc2c(c1)C1CCC2C(N2CCCCC2)CC1` (stereo not drawn) [Compound No. 1, exo- and endo-1-(2-Benzobicyclo[3.2.2]nonenyl)piperidine], the “block of N-allylnormetazocine-induced stereotyped behavior” value in assay [1] is “fully blocked”. Also, the Ki at sigma receptor was found to be 0.006 ± 0.001 µM. For `c1ccc2c(c1)C1CCC2C(N2CCCCC2)CC1` (stereo not drawn) [Compound No. 2, exo-1-(2-Benzobicyclo[3.2.2]nonenyl)piperidine], the Ki on sigma receptor stood at 0.01 ± 0.002 µM. Same read-out and setting: the value for `c1ccc2c(c1)C1CCC2C(N2CCCCC2)CC1` (stereo not drawn) [Compound No. 3, endo-1-(2-Benzobicyclo[3.2.2]nonenyl)piperidine] was 0.15 ± 0.02 µM; that for `OCCN1CCN(C2CCC3CCC2c2ccccc23)CC1` (stereo not drawn) [Compound No. 4, endo- and exo-1-(2-Benzobicyclo[3.2.2]nonenyl)-4-(2-hydroxyethyl)piperazine] was 0.305 ± 0.02 µM; that for `CN1CCN(C2CCC3CCC2c2ccccc23)CC1` (stereo not drawn) [Compound No. 5] was 16 ± 4 µM.
